The subject of test [1] is Trichophyton mentagrophytes SM-110. Nature of the test: Antifungal activity evaluation test: minimum inhibitory concentration (MIC), broth dilution by reference to CLSI M38-A2. The format is cell-based. The conditions noted are these: SM110, read-out: MIC (T. menta.). In outline: (§1)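 MIC read visually as lowest concentration inhibiting growth by at least 80% relative to control after 4 days at 35° C. Trichophyton strains inoculated at 2×10^3 cells/mL final in MOPS-buffered RPMI 1640 (pH 7.0); compounds as 2-fold DMSO series, CLSI M38-A2 basis.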

Test [2] deals with Trichophyton rubrum KD-1130. Described as above. The format is cell-based. The note with it: KD1130, read-out: MIC (T. rubrum). In a few lines:
as §1

A word on the MIC: it is the smallest concentration in the dilution series that meets the test's criterion for growth inhibition.

SMILES strings stand for the structures. ≈ marks a conversion by molar mass, not a printed value.

In the case of `COc1cc(F)c(F)cc1-c1cccnc1Oc1ccc(C(F)F)nc1` [I-76, 3-(4,5-difluoro-2-methoxyphenyl)-2-{[6-(difluoromethyl)pyridin-3-yl]oxy}pyridine], the MIC in test [1] and in test [2] was no more than 0.1 µg/mL in each case.
Regarding `COc1cc(F)ccc1-c1cccnc1Oc1ccc(C(F)(F)F)nc1` [I-12, 3-(4-fluoro-2-methoxyphenyl)-2-{[6-(trifluoromethyl)pyridin-3-yl]oxy}pyridine], the MIC in test [1] and in test [2] was no more than 0.1 µg/mL in each case.
As to `COc1ccccc1-c1cncnc1Oc1ccc(C(F)F)c(C)c1` [I-323, 4-[4-(difluoromethyl)-3-methylphenoxy]-5-(2-methoxyphenyl)pyrimidine], the minimal inhibitory concentration (MIC) in test [1] and in test [2] was no more than 0.1 µg/mL each time.
Consider `CC(F)(F)c1ccc(Oc2ncccc2-c2cccc3nccnc23)cn1` [I-110, 5-(2-{[6-(1,1-difluoroethyl)pyridin-3-yl]oxy}pyridin-3-yl)quinoxaline], for which the minimum inhibitory concentration (MIC) in test [1] is no more than 0.1 µg/mL; in test [2], 0.2 to 0.78 µg/mL (≈ 0.549 to 2.14 µM).
The matching figures for `COc1ccncc1-c1cccnc1Oc1ccc(S(F)(F)(F)(F)F)cc1` [I-240, 4′-methoxy-2-[4-(pentafluorosulfanyl)phenoxy]-3,3′-bipyridine]: no more than 0.1 µg/mL and no more than 0.1 µg/mL.
For the compound `COc1cccc(F)c1-c1cccnc1Oc1ccc(C(F)(F)F)nc1` [I-10, 3-(2-fluoro-6-methoxyphenyl)-2-{[6-(trifluoromethyl)pyridin-3-yl]oxy}pyridine], the minimum inhibitory concentration (MIC) in test [1] and in test [2] was no more than 0.1 µg/mL in each case.
With `COc1ncccc1-c1cccnc1Oc1cnc(C2CC2)c(Cl)c1` [I-131, 2-[(5-chloro-6-cyclopropylpyridin-3-yl)oxy]-2′-methoxy-3,3′-bipyridine], the minimum inhibitory concentration (MIC) in test [1] and in test [2] was 0.2 to 0.78 µg/mL (≈ 0.565 to 2.2 µM) in each case.
Take `COc1ccncc1-c1cccnc1Oc1ccc(C=O)cc1` [I-246]: the MIC in test [1] and in test [2] was 1.56 to 6.25 µg/mL (≈ 5.09 to 20.4 µM) throughout.
Take `FC(F)(F)c1ccc(Oc2ncccc2-c2ccccc2C2CC2)cn1` [I-59, 3-(2-cyclopropylphenyl)-2-{[6-(trifluoromethyl)pyridin-3-yl]oxy}pryidine]: the minimal inhibitory concentration (MIC) in test [1] and in test [2] was 0.2 to 0.78 µg/mL (≈ 0.561 to 2.19 µM) throughout.
Regarding `COc1ncncc1-c1cccnc1Oc1ccc(C(F)(F)F)cc1` [I-219, 4-methoxy-5-{2-[4-(trifluoromethyl)phenoxy]pyridin-3-yl}pyrimidine], the MIC in test [1] and in test [2] was no more than 0.1 µg/mL throughout.
For the compound `CCOC(=O)CN(C)c1ccc(Oc2ncccc2-c2ccccc2OC)cn1` [I-344, ethyl 2-[(5-{[3-(2-methoxyphenyl)pyridin-2-yl]oxy}pyridin-2-yl)(methyl)amino]acetate], the MIC in test [1] and in test [2] was no more than 0.1 µg/mL each time.
With `Cc1ccncc1-c1cccnc1Oc1ccc(-c2ccncc2)cc1` [I-430], the MIC in test [1] and in test [2] was no more than 0.1 µg/mL in each case.
As to `Cc1ccncc1-c1cccnc1Oc1ccc(-n2cccn2)cc1` [I-433], the minimal inhibitory concentration (MIC) in test [1] and in test [2] was no more than 0.1 µg/mL throughout.
`COCC(F)(F)c1ccc(Oc2ncccc2-c2cccc3ccnn23)cn1` [I-167, 7-(2-{[6-(1,1-difluoro-2-methoxyethyl)pyridin-3-yl]oxy}pyridin-3-yl)pyrazolo[1,5-a]pyridine]: the MIC in test [1] and in test [2] was 0.2 to 0.78 µg/mL (≈ 0.523 to 2.04 µM) each time.
Turning to `COc1ccncc1-c1cccnc1Oc1ccc(C(F)(F)F)nc1` [I-28, 4′-methoxy-2-{[6-(trifluoromethyl)pyridin-3-yl]oxy}-3,3′-bipyridine], the MIC in test [1] and in test [2] was 0.2 to 0.78 µg/mL (≈ 0.576 to 2.25 µM) in each case.
With `CCCc1ccc(Oc2ncccc2-c2cnccc2OC)cc1` [I-254, 4′-methoxy-2-(4-propylphenoxy)-3,3′-bipyridine], the MIC in test [1] and in test [2] was no more than 0.1 µg/mL each time.
In the case of `CCOCC(C)(C)c1ccc(Oc2ncccc2-c2cccnc2OC)cc1` [I-388, 2-[4-(1-ethoxy-2-methylpropan-2-yl)phenoxy]-2′-methoxy-3,3′-bipyridine], the minimal inhibitory concentration (MIC) in test [1] and in test [2] was no more than 0.1 µg/mL each time.
Take `CCc1ccc(Oc2ncccc2-c2cnccc2OC)cn1` [I-127, 2-[(6-ethylpyridin-3-yl)oxy]-4′-methoxy-3,3′-bipyridine]: the minimal inhibitory concentration (MIC) in test [1] and in test [2] was 1.56 to 6.25 µg/mL (≈ 5.08 to 20.3 µM) throughout.
For `COC(=O)CN(C)c1ncc(Oc2ncccc2-c2ccccc2OC)cn1` [I-387, methyl 2-[(5-{[3-(2-methoxyphenyl)pyridin-2-yl]oxy}pyrimidin-2-yl)(methyl)amino]acetate], the MIC in test [1] and in test [2] was no more than 0.1 µg/mL throughout.
`COc1ccccc1-c1cccnc1Oc1cnc2c(c1)CCCC2N(C)C` (stereo not shown) [I-143, 3-{[3-(2-methoxyphenyl)pyridin-2-yl]oxy}-N,N-dimethyl-5,6,7,8-tetrahydroquinolin-8-amine]: the MIC in test [1] and in test [2] was 0.2 to 0.78 µg/mL (≈ 0.533 to 2.08 µM) in each case.
With `COc1ccccc1-c1cccnc1Oc1ccc(C(F)F)nc1` [I-72, 2-{[6-(difluoromethyl)pyridin-3-yl]oxy}(2-methoxyphenyl)pyridine], the minimum inhibitory concentration (MIC) in test [1] and in test [2] was 0.2 to 0.78 µg/mL (≈ 0.609 to 2.38 µM) each time.
Turning to `Cc1ccncc1-c1cccnc1Oc1ccc(C(C)(F)F)cc1` [I-299, 2-[4-(1,1-difluoroethyl)-phenoxy]-4′-methyl-3,3′-bipyridine], the MIC in test [1] and in test [2] was no more than 0.1 µg/mL throughout.
Consider `COc1ccccc1-c1cncnc1Oc1ccc(Cl)cc1` [I-319, 4-(4-chlorophenoxy)-5-(2-methoxyphenyl)pyrimidine], for which the MIC in test [1] and in test [2] was no more than 0.1 µg/mL in each case.
As to `CCOc1ncc(Oc2ncccc2-c2ccc(F)cc2OC)cn1` [I-187, 2-ethoxy-5-{[3-(4-fluoro-2-methoxyphenyl)pyridin-2-yl]oxy}pyrimidine], the MIC in test [1] and in test [2] was 1.56 to 6.25 µg/mL (≈ 4.57 to 18.3 µM) each time.
For `COc1ncccc1-c1cccnc1Oc1cnc(N(C)Cc2ccccc2)nc1` [I-381, N-benzyl-5-{[2′-methoxy-(3,3′-bipyridin)-2-yl]oxy}-N-methylpyrimidin-2-amine], the minimal inhibitory concentration (MIC) in test [1] and in test [2] was no more than 0.1 µg/mL throughout.
Turning to `COc1c(-c2cccnc2Oc2ccc(C(F)(F)F)cc2)cnn1C` [I-223, 3-(5-methoxy-1-methyl-1H-pyrazol-4-yl)-2-[4-(trifluoromethyl)phenoxy]pyridine], the MIC in test [1] and in test [2] was 0.2 to 0.78 µg/mL (≈ 0.573 to 2.23 µM) in each case.
Regarding `Cc1ccncc1-c1cccnc1Oc1ccc(I)cc1` [I-426], the MIC in test [1] and in test [2] was no more than 0.1 µg/mL in each case.
On to `CC(F)(F)c1ccc(Oc2ncccc2-c2cccnc2-n2ccnc2)cn1` [I-106, 2-{[6-(1,1-difluoroethyl)pyridin-3-yl]oxy}-2′-(1H-imidazol-1-yl)-3,3′-bipyridine], for which the MIC in test [1] and in test [2] was 1.56 to 6.25 µg/mL (≈ 4.11 to 16.5 µM) throughout.
As for `CCOC(=O)c1ccc(Oc2ncccc2-c2cnccc2OCC)cc1` [I-415, ethyl 4-{[4′-ethoxy-(3,3′-bipyridin)-2-yl]oxy}benzoate], the MIC in test [1] and in test [2] was no more than 0.1 µg/mL in each case.
For the compound `CCc1ccc(Oc2ncccc2-c2cnccc2OC)cc1F` [I-392, 2-(4-ethyl-3-fluorophenoxy)-4′-methoxy-3,3′-bipyridine], the MIC in test [1] and in test [2] was no more than 0.1 µg/mL each time.
Regarding `Cc1noc(C)c1-c1cccnc1Oc1ccc(C(C)(F)F)nc1` [I-102], the MIC in test [1] and in test [2] was 0.2 to 0.78 µg/mL (≈ 0.604 to 2.35 µM) in each case.
With `COc1cc(F)ccc1-c1cccnc1Oc1cnc(C(F)F)c(C)c1` [I-121, 2-(difluoromethyl)-5-{[3-(4-fluoro-2-methoxyphenyl)pyridin-2-yl]oxy}-3-methylpyridine], the minimal inhibitory concentration (MIC) in test [1] and in test [2] was no more than 0.1 µg/mL in each case.
For `COCC(F)(F)c1ccc(Oc2ncncc2-c2cccnc2OC)cn1` [I-361, 4-{[6-(1,1-difluoro-2-methoxyethyl)pyridin-3-yl]oxy}-5-(2-methoxypyridin-3-yl)pyrimidine], the MIC in test [1] and in test [2] was 0.2 to 0.78 µg/mL (≈ 0.534 to 2.08 µM) each time.
Take `CC(F)(F)c1ccc(Oc2ncccc2-c2cccc(F)c2C#N)cn1` [I-87, 2-(2-{[6-(1,1-difluoroethyl)pyridin-3-yl]oxy}pyridin-3-yl)-6-fluorobenzonitrile]: the minimum inhibitory concentration (MIC) in test [1] and in test [2] was 0.2 to 0.78 µg/mL (≈ 0.563 to 2.2 µM) each time.
Turning to `C#CCOCC(F)(F)c1ccc(Oc2ncccc2-c2ccccc2OC)cn1` [I-160, 2-({6-[1,1-difluoro-2-(2-propyl-1-yloxy)ethyl]pyridin-3-yl}oxy)-3-(2-methoxyphenyl)pyridine], the minimal inhibitory concentration (MIC) in test [1] and in test [2] was no more than 0.1 µg/mL each time.
Consider `Cc1noc(-c2ccc(Oc3ncccc3-c3cnccc3C)cc2)n1` [I-421], for which the minimal inhibitory concentration (MIC) in test [1] and in test [2] was no more than 0.1 µg/mL each time.
In the case of `FC(F)(F)c1ccc(Oc2ncncc2-c2cccc3ccnn23)cc1` [I-332, 7-{4-[4-(trifluoromethyl)phenoxy]pyrimidin-5-yl}pyrazolo[1,5-a]pyridine], the MIC in test [1] and in test [2] was no more than 0.1 µg/mL throughout.
For `COc1ccccc1-c1cccnc1Oc1ccc(C(F)(F)COS(=O)(=O)C(F)(F)F)nc1` [I-80, 2,2-difluoro-2-(5-{[3-(2-methoxyphenyl)pyridin-2-yl]oxy}pyridin-2-yl)ethyl trifluoromethanesulfonate], the MIC in test [1] and in test [2] was 0.2 to 0.78 µg/mL in each case.
Take `COCC(F)(F)c1ccc(Oc2ncccc2-c2cc(F)cc3nccnc23)cn1` [I-170, 5-(2-{[6-(1,1-difluoro-2-methoxyethyl)pyridin-3-yl]oxy}pyridin-3-yl)-7-fluoroquinoxaline]: the minimum inhibitory concentration (MIC) in test [1] and in test [2] was 0.2 to 0.78 µg/mL (≈ 0.485 to 1.89 µM) throughout.
Turning to `COc1ncccc1-c1cccnc1Sc1ccc(C(F)(F)F)cc1` [I-435], the MIC in test [1] and in test [2] was 0.2 to 0.78 µg/mL (≈ 0.552 to 2.15 µM) throughout.
On to `FC(F)(F)c1ccc(Oc2ncccc2-c2ccccc2Br)cn1` [I-5, 3-(2-bromophenyl)-2-{[6-(trifluoromethyl)pyridin-3-yl]oxy}pyridine], for which the values for the MIC in test [1] and in test [2] were 0.2 to 0.78 µg/mL (≈ 0.506 to 1.97 µM) and no more than 0.1 µg/mL, respectively.

The values above are taken from patent US10647675B2 (priority 2015, dated 2020).
